Experiments:
Test in all cases: KiNativ profiling in human PBMCs
Format in all cases: binding
[1] = system: MST4,YSK1; details: Lys2
Method: (§1) Compounds were shipped to ActivX Technologies (San Diego, US) where LRRK2 target engagement and broad kinase profiling was performed using KiNativ™ procedures. Live cell treatment of human peripheral blood mononuclear cells (PBMCs) at two compound concentrations (1 µM and 0.1 µM) were used to evaluate and compare in vitro target engagement and kinase selectivity, respectively (see Supplementary File 1).

[2] = system: T1, MLK3; details: Lys2
T1 construct: purchased ActivX Technologies (KiNativ)
Method: as §1

[3] = system: T2, GPRK6; details: Lys2
T2 construct: purchased ActivX Technologies (KiNativ)
Method: as §1

[4] = system: T3, CHK2
T3 construct: purchased ActivX Technologies (KiNativ)
Method: as §1

[5] = system: TAO1,TAO3; details: Lys2
Method: as §1

[6] = system: T4, QSK; details: Lys1
T4 construct: purchased ActivX Technologies (KiNativ)
Method: as §1

[7] = system: T5, Erk5; details: Lys2
T5 construct: purchased ActivX Technologies (KiNativ)
Method: as §1

[8] = system: T6, GSK3A; details: Lys2
T6 construct: purchased ActivX Technologies (KiNativ)
Method: as §1

[9] = system: T7, MAP2K4; details: 1µM; Lys2
T7 construct: purchased ActivX Technologies (KiNativ)
Method: as §1

[10] = system: T8, BARK1; details: Lys2
T8 construct: purchased ActivX Technologies (KiNativ)
Method: as §1

[11] = system: T9, SYK
T9 construct: purchased ActivX Technologies (KiNativ)
Method: as §1

[12] = system: T10, MAP3K1; details: Lys2
T10 construct: purchased ActivX Technologies (KiNativ)
Method: as §1

[13] = system: T11, eEF2K; details: ATP
T11 construct: purchased ActivX Technologies (KiNativ)
Method: as §1

[14] = system: T12, PAN3; details: Protein Kinase Domain
T12 construct: purchased ActivX Technologies (KiNativ)
Method: as §1

[15] = system: T13, NEK4; details: Lys2
T13 construct: purchased ActivX Technologies (KiNativ)
Method: as §1

[16] = system: T14, NDR2
T14 construct: purchased ActivX Technologies (KiNativ)
Method: as §1

[17] = system: T15, FGR; details: Activation Loop
T15 construct: purchased ActivX Technologies (KiNativ)
Method: as §1

[18] = system: T16, JAK1 domain1; details: Other
T16 construct: JAK1 domain1; purchased ActivX Technologies (KiNativ)
Method: as §1

[19] = system: T17, IKKe; details: Lys1
T17 construct: purchased ActivX Technologies (KiNativ)
Method: as §1

[20] = system: T18, TBK1; details: Lys1
T18 construct: purchased ActivX Technologies (KiNativ)
Method: as §1

[21] = system: T19, JAK3 domain2
T19 construct: JAK3 domain2; purchased ActivX Technologies (KiNativ)
Method: as §1

[22] = system: T20, PKR
T20 construct: purchased ActivX Technologies (KiNativ)
Method: as §1

[23] = system: T21, OSR1; details: Lys2
T21 construct: purchased ActivX Technologies (KiNativ)
Method: as §1

[24] = system: Wnk1,Wnk2,Wnk3; details: Lys2
Method: as §1

[25] = system: T22, PIK3C3; details: ATP
T22 construct: purchased ActivX Technologies (KiNativ)
Method: as §1

[26] = system: T23, PFTAIRE1; details: Lys1
T23 construct: purchased ActivX Technologies (KiNativ)
Method: as §1

[27] = system: T24, JAK1 domain2
T24 construct: JAK1 domain2; purchased ActivX Technologies (KiNativ)
Method: as §1

[28] = system: T25, MAP3K6; details: Lys2
T25 construct: purchased ActivX Technologies (KiNativ)
Method: as §1

[29] = system: NEK6,NEK7; details: Lys2
Method: as §1

[30] = system: T26, CDC2; details: Lys2
T26 construct: purchased ActivX Technologies (KiNativ)
Method: as §1

[31] = system: T27, NEK8; details: Lys2
T27 construct: purchased ActivX Technologies (KiNativ)
Method: as §1

[32] = system: T28, NEK7; details: Lys1
T28 construct: purchased ActivX Technologies (KiNativ)
Method: as §1

[33] = system: CDK11,CDK8; details: Lys2
Method: as §1

[34] = system: T29, KHS1; details: Lys1
T29 construct: purchased ActivX Technologies (KiNativ)
Method: as §1

[35] = system: T30, CSK
T30 construct: purchased ActivX Technologies (KiNativ)
Method: as §1

[36] = system: T31, STLK6; details: Lys2
T31 construct: purchased ActivX Technologies (KiNativ)
Method: as §1

With Cc1cccc(-c2cc(Nc3ccn(C)n3)nc3[nH]cc(C#N)c23)c1 [Lu AF58786] the Inhibition ([1]; 0.1µM) was 22.5%, the Inhibition ([1]; 1µM) was 4.6% and the Inhibition ([2]; 0.1µM) was 1.5%. For the same molecule, the Inhibition ([2]; 1µM) was 8.8%, the Inhibition ([3]; 0.1µM) was -65.0% and the Inhibition ([3]; 1µM) was -34.1%. It also gave an Inhibition ([4]; 0.1µM, Lys1) of 15.1%, an Inhibition ([4]; 0.1µM, Lys2) of 2.3% and an Inhibition ([4]; 1µM, Lys1) of 2.8%. The Inhibition ([4]; 1µM, Lys2) was -16.2%, the Inhibition ([5]; 0.1µM) was 27.6% and the Inhibition ([5]; 1µM) was 15.9%. It also gave an Inhibition ([6]; 0.1µM) of 15.6%, an Inhibition ([6]; 1µM) of 28.4% and an Inhibition ([7]; 0.1µM) of 2.1%. For the same molecule, the Inhibition ([7]; 1µM) was 10.9%, the Inhibition ([8]; 0.1µM) was 13.7% and the Inhibition ([8]; 1µM) was 27.3%. For the same molecule, the Inhibition [9] was -0.124%, the Inhibition ([10]; 0.1µM) was 12.1% and the Inhibition ([10]; 1µM) was 6.3%. The Inhibition ([11]; 0.1µM, Activation Loop) was 8.3%, the Inhibition ([11]; 0.1µM, Lys1) was 12.8% and the Inhibition ([11]; 1µM, Lys1) was -5.9%. For the same molecule, the Inhibition ([12]; 0.1µM) was 9.1%, the Inhibition ([12]; 1µM) was 0.247% and the Inhibition ([13]; 0.1µM) was 12.2%. The Inhibition ([13]; 1µM) was 6.3%, the Inhibition ([14]; 0.1µM) was -11.9% and the Inhibition ([14]; 1µM) was -9.9%. It also gave an Inhibition ([15]; 0.1µM) of -32.0%, an Inhibition ([15]; 1µM) of -14.9% and an Inhibition ([16]; 0.1µM, Lys1) of -14.6%. It also gave an Inhibition ([16]; 0.1µM, Lys2) of 10.7%, an Inhibition ([16]; 1µM, Lys1) of -18.5% and an Inhibition ([16]; 1µM, Lys2) of 1.3%. It also gave an Inhibition ([17]; 0.1µM) of 11.4%, an Inhibition ([17]; 1µM) of 5.2% and an Inhibition ([18]; 0.1 µM) of 19.3%. For the same molecule, the Inhibition ([18]; 1 µM) was 55.0%, the Inhibition ([19]; 0.1µM) was 8.3% and the Inhibition ([19]; 1µM) was -0.117%. The Inhibition ([20]; 0.1µM) was 10.1%, the Inhibition ([20]; 1µM) was 26.3% and the Inhibition ([21]; 0.1µM, Activation Loop) was 4.0%. It also gave an Inhibition ([21]; 0.1µM, Lys1) of 12.9%, an Inhibition ([21]; 1µM, Activation Loop) of 52.9% and an Inhibition ([21]; 1µM, Lys1) of 20.6%. The Inhibition ([22]; 0.1µM, Activation Loop) was 6.9%, the Inhibition ([22]; 0.1µM, Lys2) was 5.1% and the Inhibition ([22]; 1µM, Activation Loop) was -2.5%. It also gave an Inhibition ([22]; 1µM, Lys2) of 4.5%, an Inhibition ([23]; 0.1µM) of 19.8% and an Inhibition ([23]; 1µM) of -4.1%. The Inhibition ([24]; 0.1µM) was 10.5%, the Inhibition ([24]; 1µM) was -5.4% and the Inhibition ([25]; 0.1µM) was 1.5%. The Inhibition ([25]; 1µM) was -10.0%, the Inhibition ([26]; 0.1µM) was 5.8% and the Inhibition ([26]; 1µM) was -10.2%. It also gave an Inhibition ([27]; 0.1µM, Activation Loop) of 0.9%, an Inhibition ([27]; 0.1µM, Lys1) of -25.0% and an Inhibition ([27]; 1µM, Activation Loop) of -39.0%. The Inhibition ([27]; 1µM, Lys1) was -35.1%, the Inhibition ([28]; 0.1µM) was 31.4% and the Inhibition ([28]; 1µM) was 4.4%. It also gave an Inhibition ([29]; 0.1µM) of 15.4%, an Inhibition ([29]; 1µM) of -5.8% and an Inhibition ([30]; 0.1 µM, DLKPQNLLIDDK) of -19.4%. The Inhibition ([30]; 0.1 µM, DLKPQNLLIDDKGTIK) was 5.9%, the Inhibition ([30]; 1 µM, DLKPQNLLIDDK) was -27.3% and the Inhibition ([30]; 1 µM, DLKPQNLLIDDKGTIK) was 6.8%. The Inhibition ([31]; 0.1µM) was -2.3%, the Inhibition ([31]; 1µM) was -10.4% and the Inhibition ([32]; 0.1µM) was -17.5%. The Inhibition ([32]; 1µM) was 16.7%, the Inhibition ([33]; 0.1µM) was -20.3% and the Inhibition ([33]; 1µM) was -2.0%. The Inhibition ([34]; 0.1µM) was 3.0%, the Inhibition ([34]; 1µM) was -2.5% and the Inhibition ([35]; 0.1µM, Activation Loop) was 7.6%. The Inhibition ([35]; 0.1µM, Lys1) was 16.0%, the Inhibition ([35]; 1µM, Activation Loop) was -1.7% and the Inhibition ([35]; 1µM, Lys1) was 6.8%. For the same molecule, the Inhibition ([36]; 0.1µM) was -9.8% and the Inhibition ([36]; 1µM) was -1.6%.
